Marks after values point to notes of the source that are not given here.
Key:
patients with hyposmia [1] = assay: Pilot study of intranasal theophylline, subjective taste and smell response; format: in vivo, human
Source text: Ten patients with hyposmia were selected from among 400 patients with hyposmia to participate in a pilot study to determine safety and efficacy of intranasal theophylline for the treatment of hyposmia. […] Selection for inclusion in the intranasal study was based upon several criteria. 1) non-response to oral theophylline; 2) severe side effects with oral theophylline that prevented reaching a dose of sufficient strength to restore smell function; and/or 3) preference for intranasal medication over oral medication.
Subjective responses to treatment were obtained independent of any interaction with the clinical staff by using a scale of 0-100 to measure response of taste function and smell function to treatment with 0 indicating no response, 100 indicating return to normal function and intermediate numbers indicating an intermediate response.
The patients inserted a plastic syringe containing 0.4 ml of fluid (20 μg theophylline) into each naris once a day. […] The drug dose was delivered through a plastic nipple which fitted snugly onto the filled syringe which was attached directly to the nipple. One nipple was supplied for each set of two syringes in each application kit. The patient fitted the nipple on one syringe, placed the nipple securely into the lower naris and injected the contents of the syringe directly into the lower vault of one naris accompanied by a modest inhalation. […]

patients with hyposmia [2] = assay: Smell function tests (DT, RT, ME), forced-choice three-stimuli stepwise-staircase technique, open trial of oral theophylline; format: in vivo, human; details: for detection threshold (DT), amyl acetate / detection threshold (DT), nitrobenzene / detection threshold (DT), pyridine / detection threshold (DT), thiophene / magnitude estimation (ME), amyl acetate / magnitude estimation (ME), nitrobenzene / magnitude estimation (ME), pyridine / magnitude estimation (ME), thiophene / recognition threshold (RT), amyl acetate / recognition threshold (RT), nitrobenzene / recognition threshold (RT), pyridine / recognition threshold (RT), thiophene: mean ± SEM
Source text: Patients initially reported their sensory dysfunction as either loss of taste (i.e., flavor) and/or smell function. This subjective response was documented by objective psychophysical measurements of olfactory function administered to each patient by use of a forced-choice, three-stimuli, stepwise-staircase technique in a fixed, controlled design (1, 53). Efficacy of this technique and results of testing were previously documented in a double-blind clinical trial (53). Four odors were used; they were pyridine (dead-fish odor), nitrobenzene (bitter-almond odor), thiophene (petroleum-like odor) and amyl acetate (banana-oil odor). Detection thresholds (DT), recognition thresholds (RT) and magnitude estimation (ME) values for each odor were determined as previously described (1, 53). Thresholds were converted into bottle units (BU) as previously described (53) and results reported as M±SEM of correct responses for each odor in each treatment group; ME was reported in % and results calculated to obtain M±SEM for each treatment group for all correct responses using data for the four highest odor concentrations presented (from 10^−2M—an absolute odor concentration).
After determination of hyposmia, patients were treated in an open label, fixed design, controlled open trial. Patients were given an oral extended release theophylline in divided daily doses taken in the middle of breakfast and lunch. All patients were initially given 200 mg of theophylline; changes in this dose were made based upon subjective responses to therapy. If at a subsequent return visit, patients reported ≥5% subjective improvement in overall smell function, they continued on this same dose of theophylline and were reevaluated after four to six months of continued treatment. Results from any subsequent return from these improved patients were not included in any subsequent data report. All subsequent comparisons between treated and untreated patients were made only between those patients continuing in the study compared to their own measurements obtained in the untreated state. If patients reported <5% subjective improvement, their theophylline dose was increased by 200 mg daily and they were scheduled for retesting at the study site after two to four months at this new dosage. For patients that reported <5% improvement, this sequence continued until patients reached 800 mg of theophylline, at which time the study was considered completed.
Patients returned for reevaluation after two to four months of treatment. Measurements of blood serum theophylline were measured by a fluorescence polarization assay (Abbott, Chicago, IL). At this time, subjective changes in smell function were measured independently (compared to patient's memory of previous normal smell function monitored by use of the patients' daily measurements) using the scale from −100-0-+100 previously described (vs). After independently recording their subjective responses, smell function was measured for all four odors with DT, RT, ME and H determined without recourse to prior measurements.
Since data for all measurements from each patient group (local or distant) on each dose level were combined mean and SEM for each measurement (DT, RT, ME, H) of smell function for each treatment group were calculated on this basis. Differences in measurements between before treatment and each treatment level were calculated and significance of differences estimated using Student t tests (values p<0.05 considered significant). Some patient responses were also analyzed by use of non-parametric statistics (sign test) and the Spearman rank correlation technique; […] was considered significant related to smell loss type and treatment response. Since each patient served as his/her own control with respect to before and after treatment, paired t tests were also calculated; […] were considered significant. These values were not included in the results presented.

[3] = oral 200 mg daily, 2-6 months, all patients (199)
[4] = oral 200 mg, Type I hyposmia (57)
[5] = oral 400 mg daily, 2-6 months, all patients (120)
[6] = oral 400 mg, Type I hyposmia (33)
[7] = oral 600 mg daily, 2-12 months, all patients (160)
[8] = oral 600 mg, Type I hyposmia (51)
[9] = oral 800 mg daily, 2-12 months, all patients (28)
[10] = oral 800 mg, Type I hyposmia (12)

Cn1c(=O)c2[nH]cnc2n(C)c1=O [theophylline]
subjective improvement in both taste and smell function over prior results with oral theophylline (patients with hyposmia [1]; intranasal 20 μg per naris once a day, 4 weeks, six of eight patients): 10-20% | further loss of smell while in the study (patients with hyposmia [1]; intranasal 20 μg per naris, after stopping oral theophylline): No patient exhibited a further of loss of smell | detection threshold (DT), amyl acetate (patients with hyposmia [2]; [3]): 7.9 ± 0.2^c BU | detection threshold (DT), nitrobenzene (patients with hyposmia [2]; [3]): 7.8 ± 0.2^d BU | detection threshold (DT), pyridine (patients with hyposmia [2]; [3]): 7.6 ± 0.2^a BU | detection threshold (DT), thiophene (patients with hyposmia [2]; [3]): 7.5 ± 0.2^c BU | magnitude estimation (ME), amyl acetate (patients with hyposmia [2]; [3]): 15 ± 2^d % | magnitude estimation (ME), nitrobenzene (patients with hyposmia [2]; [3]): 17 ± 2^ % | magnitude estimation (ME), pyridine (patients with hyposmia [2]; [3]): 28 ± 2^a % | magnitude estimation (ME), thiophene (patients with hyposmia [2]; [3]): 21 ± 2^ % | recognition threshold (RT), amyl acetate (patients with hyposmia [2]; [3]): 9.9 ± 0.2^c BU | recognition threshold (RT), nitrobenzene (patients with hyposmia [2]; [3]): 9.5 ± 0.2^a BU | recognition threshold (RT), pyridine (patients with hyposmia [2]; [3]): 9.0 ± 0.2^a BU | recognition threshold (RT), thiophene (patients with hyposmia [2]; [3]): 9.1 ± 0.2^c BU | detection threshold (DT), amyl acetate (patients with hyposmia [2]; [4]): 10.5 ± 0.3^d BU | detection threshold (DT), nitrobenzene (patients with hyposmia [2]; [4]): 10.3 ± 0.3^a BU | detection threshold (DT), pyridine (patients with hyposmia [2]; [4]): 9.5 ± 0.2 BU | detection threshold (DT), thiophene (patients with hyposmia [2]; [4]): 10.1 ± 0.3^d BU | recognition threshold (RT), amyl acetate (patients with hyposmia [2]; [4]): 11.3 ± 0.2^ BU | recognition threshold (RT), nitrobenzene (patients with hyposmia [2]; [4]): 11.2 ± 0.2^d BU | recognition threshold (RT), thiophene (patients with hyposmia [2]; [4]): 11.4 ± 0.2^ BU | total mean increase in ME, all odors (patients with hyposmia [2]; oral 400 mg): 10.4% | detection threshold (DT), amyl acetate (patients with hyposmia [2]; [5]): 7.1 ± 0.3^b BET | detection threshold (DT), nitrobenzene (patients with hyposmia [2]; [5]): 7.2 ± 0.3^c BET | detection threshold (DT), pyridine (patients with hyposmia [2]; [5]): 7.0 ± 0.3^c BET | detection threshold (DT), thiophene (patients with hyposmia [2]; [5]): 6.8 ± 0.4^c BET | magnitude estimation (ME), amyl acetate (patients with hyposmia [2]; [5]): 18 ± 2^c % | magnitude estimation (ME), nitrobenzene (patients with hyposmia [2]; [5]): 23 ± 2^a % | magnitude estimation (ME), thiophene (patients with hyposmia [2]; [5]): 26 ± 2^c % | recognition threshold (RT), nitrobenzene (patients with hyposmia [2]; [5]): 8.9 ± 0.3^b BU | recognition threshold (RT), pyridine (patients with hyposmia [2]; [5]): 8.5 ± 0.3^a BU | recognition threshold (RT), thiophene (patients with hyposmia [2]; [5]): 8.4 ± 0.3^a BU | detection threshold (DT), amyl acetate (patients with hyposmia [2]; [6]): 10.1 ± 0.5^a BU | detection threshold (DT), pyridine (patients with hyposmia [2]; [6]): 8.8 ± 0.5 BU | recognition threshold (RT), amyl acetate (patients with hyposmia [2]; [6]): 11.2 ± 0.3^ BU | recognition threshold (RT), nitrobenzene (patients with hyposmia [2]; [6]): 10.9 ± 0.4^e BU | recognition threshold (RT), thiophene (patients with hyposmia [2]; [6]): 10.8 ± 0.4^d BU | detection threshold (DT), amyl acetate (patients with hyposmia [2]; [7]): 7.8 ± 0.3^a BET | detection threshold (DT), nitrobenzene (patients with hyposmia [2]; [7]): 7.8 ± 0.3^a BET | detection threshold (DT), pyridine (patients with hyposmia [2]; [7]): 7.4 ± 0.2^c BET | detection threshold (DT), thiophene (patients with hyposmia [2]; [7]): 7.1 ± 0.3^a BET | magnitude estimation (ME), amyl acetate (patients with hyposmia [2]; [7]): 15 ± 2^c % | magnitude estimation (ME), nitrobenzene (patients with hyposmia [2]; [7]): 18 ± 2^d % | magnitude estimation (ME), pyridine (patients with hyposmia [2]; [7]): 26 ± 2^d % | magnitude estimation (ME), thiophene (patients with hyposmia [2]; [7]): 21 ± 2^d % | recognition threshold (RT), amyl acetate (patients with hyposmia [2]; [7]): 9.6 ± 0.2^a BU | recognition threshold (RT), nitrobenzene (patients with hyposmia [2]; [7]): 9.1 ± 0.2^c BU | recognition threshold (RT), pyridine (patients with hyposmia [2]; [7]): 9.4 ± 0.2^c BU | recognition threshold (RT), thiophene (patients with hyposmia [2]; [7]): 9.0 ± 0.3^c BU | detection threshold (DT), amyl acetate (patients with hyposmia [2]; [8]): 10.1 ± 0.3^a BU | recognition threshold (RT), amyl acetate (patients with hyposmia [2]; [8]): 11.1 ± 0.2^c BU | recognition threshold (RT), nitrobenzene (patients with hyposmia [2]; [8]): 10.8 ± 0.3^e BU | recognition threshold (RT), pyridine (patients with hyposmia [2]; [8]): 10.9 ± 0.3 BU | recognition threshold (RT), thiophene (patients with hyposmia [2]; [8]): 10.9 ± 0.3^b BU | detection threshold (DT), amyl acetate (patients with hyposmia [2]; [9]): 7.2 ± 0.8 BU | detection threshold (DT), nitrobenzene (patients with hyposmia [2]; [9]): 7.0 ± 0.8^d BU | detection threshold (DT), thiophene (patients with hyposmia [2]; [9]): 7.2 ± 0.7 BU | magnitude estimation (ME), amyl acetate (patients with hyposmia [2]; [9]): 24 ± 2^a % | magnitude estimation (ME), nitrobenzene (patients with hyposmia [2]; [9]): 25 ± 6 ^ % | magnitude estimation (ME), pyridine (patients with hyposmia [2]; [9]): 29 ± 5% | magnitude estimation (ME), thiophene (patients with hyposmia [2]; [9]): 20 ± 4% | recognition threshold (RT), amyl acetate (patients with hyposmia [2]; [9]): 9.0 ± 0.5^b BU | recognition threshold (RT), nitrobenzene (patients with hyposmia [2]; [9]): 7.8 ± 0.8^d BU | recognition threshold (RT), pyridine (patients with hyposmia [2]; [9]): 8.5 ± 0.6^c BU | recognition threshold (RT), thiophene (patients with hyposmia [2]; [9]): 9.6 ± 0.6 BU | detection threshold (DT), amyl acetate (patients with hyposmia [2]; [10]): 10.6 ± 0.5^ BU | detection threshold (DT), nitrobenzene (patients with hyposmia [2]; [10]): 10.1 ± 0.8^ BU | detection threshold (DT), pyridine (patients with hyposmia [2]; [10]): 9.6 ± 0.8 BU | recognition threshold (RT), amyl acetate (patients with hyposmia [2]; [10]): 11.6 ± 0.4^ BU | recognition threshold (RT), nitrobenzene (patients with hyposmia [2]; [10]): 11.3 ± 0.7^ BU | recognition threshold (RT), pyridine (patients with hyposmia [2]; [10]): 10.3 ± 1.0 BU | recognition threshold (RT), thiophene (patients with hyposmia [2]; [10]): 11.6 ± 0.2^ BU

From US12329753B2, “Phosphodiesterase inhibitor treatment” (Cyrano Therapeutics, Inc., priority 2008, dated 2025)
